Counter-ions that a name gives are not always drawn.

The subject of assay [1] is outer hair cells. Put plainly: Outer hair cell loss (cytocochleograms) in cochleae fixed at D14 after acoustic trauma. It counts as in vivo, Wistar rats. The protocol:
Animals were exposed to 121 dB octave band noise (8-16 kHz) for 2 h in groups of 4 rats, placed in individual compartments of a custom built circular cage placed on a 30 cm diameter platform rotating at 3 turns/minute (Aqila Innovation, Valbonne, France). The calibrated octave band noise generated by the RZ6 SigGen software was further amplified by a Crown D-75 amplifier in bridge mode (Crown Audio, Elkhart, IN, USA) and delivered by four Beyma CP16 compression tweeters (Acustica Beyma S. L., Moncada, Valencia, Spain) positioned 39 cm above the rotating platform, each 10 cm from the platform center.
Animals were treated by intraperitoneal injection daily for 14 days beginning immediately after acoustic trauma induction and subsequently repeated every 24 hours. The setron compounds granisetron HCl, ondansetron HCl, tropisetron HCl and azasetron HCl (Tocris Bioscience, Bristol, UK) were delivered dissolved in saline solution (1.6 mL/kg) while Tacrolimus (Selleck Chemicals, Houston, TX, USA) was dissolved in solution composed of 10% ethanol-100%/10% Kolliphor EL/1% Tween 80/79% saline (1.0 mL/kg). Placebo treated animals received injections of 1.6 mL/kg saline following the same treatment schedule.
After audiometry on day 14, animals were deeply anaesthetized with an intraperitoneal injection of pentobarbital (100 mg/kg). The cochleae were removed, fixed with 4% paraformaldehyde, pH 7.4, decalcified with 10% EDTA, pH 7.4 and then stained with myosin VIIa 1/1000. […] The mean loss of OHCs per group was subsequently calculated as a function of normalized distance from the apex in bins of 2.5% of the total length, using the total length of each histological specimen. Cell counts could reliably be obtained for up to 90% of the total distance from the apex (corresponding to the tonotopic region up to from 0 kHz to ~50 kHz in rat, Viberg & Canlon 2004), while the last 10% was too variable due to damage incurred during dissection.
Statistical analysis was performed using two-way ANOVA (Audiometry data: frequency and treatment group. Cochleograms: normalized distance from apex and treatment group) followed by Holm-Sidak post-hoc test for multiple comparisons. Results are given as mean±SEM and a p value less than or equal to 0.05 considered significant.
To further support the conclusions from the functional audiometry data, the loss of outer hair cells in four treatment group was determined by constructing cytocochleograms from histological preparations of cochleae fixed after audiometry on day 14.

Assay [2] has as its system calcineurin. Put plainly: Calcineurin phosphatase activity in cerebellar granule neurons after 4 DIV (malachite green colorimetric assay, Test A). It counts as cell-based, Wistar rat. The protocol:
According to Test A, phosphatase calcineurin activity is assessed in cerebellar granule neurons (CGNs) using a colorimetric assay kit based on quantification of the green complex formed between malachite green, molybdate and free phosphate released. CGNs are detached from plates, for example by scraping, rinsed in ice-cold tris buffer solution (TBS) and counted. About 10 million cells are lysed in 1 ml of the provided lysis buffer and centrifuged at 150,000×g at 4° C. for 45 min, and the supernatant may be stored at −70° C. until analysis. Prior to calcineurin activity assay, free phosphate and nucleotides are removed from cellular extract by gel filtration. To ensure the complete removal of phosphate, malachite green reagent may be added, which will turn the color green in presence of phosphate. A specific calcineurin substrate is added to phosphate-free cellular extracts and after appropriate incubation period, malachite green reagent is applied. The rapid green color formation from the reaction is measured, for example on a spectrophotometer. The developed color is proportional to the calcineurin phosphatase activity of samples. Absorbance values, read at 620 nm, may thus be transformed to percentage calcineurin activity relative to K25 control treatment (100%). Cerebellar granule cells were dissociated from the cerebellae of 7-day-old Wistar rat pups as described (Kramer et al. 2003, Mol Cell Neurosci 23:325-330). Briefly, the cerebellae were removed, rinsed in HBSS-BSA, minced, digested with 0.025% trypsin and incubated at 37° C. for 15 min. To stop the digestion, DMEM containing 10% fetal calf serum was added; then a single cell suspension was obtained through pipetting up and down the sedimented tissue. Following centrifugation, cells were counted using trypan blue exclusion test in a Burker chamber. This method is based on the ability of viable cells to exclude trypan blue due to their intact cell membranes, leaving them unstained while nonviable cells take up the dye. Cells at 3.2×10^5/cm^2 were seeded in DMEM Hepes modification supplemented with 10% fetal calf serum, 100 μg/ml pyruvate, and 100 μg/ml gentamicin on Polystyrene 12-well tissue culture plates (CELLSTAR) coated with poly-L-lysine. After 24 h, 10 μM cytosine arabinofuranoside was added to inhibit the growth of non-neuronal cells. All pharmacological interventions begun at this time in the culture medium containing 25 mM KCl (K25), which caused depolarization of granule cells and consequently activated gene expression machinery. Moreover, the viability of granule neurons was higher in this milieu and therefore provides the possibility to maintain cells for several days. Indeed, 25 mM KCl is required in the medium for CGN cultures to maintain adequate calcineurin activity and cell maturation and depolarization (Kramer et al., 2003, Mol Cell Neurosci 23:325-330; Vallano et al. 2006, Neuropharmacology 50: 651-660). Cultures received simple medium (K25 control) or medium containing a setron compound in HCl salt form (Tocris Bioscience, Bristol, UK) at concentrations of 10 nM, 100 nM or 1000 nM for 4 days in vitro (DIV). Phosphatase calcineurin activity was assessed in CGNs using a colorimetric assay kit based on quantification of the green complex formed between malachite green, molybdate and free phosphate released. CGNs were detached from plates by scraping, rinsed in ice-cold tris buffer solution (TBS) and counted. About 10 million cells are lysed in 1 ml of the provided lysis buffer and centrifuged at 150,000×g at 4° C. for 45 min, and the supernatant was stored at −70° C. until analysis. Prior to calcineurin activity assay, free phosphate and nucleotides were removed from cellular extract by gel filtration. To ensure the complete removal of phosphate, malachite green reagent was added, which will turn the color green in presence of phosphate. […]

In the case of `CN1C(=O)COc2c(C(=O)NC3CN4CCC3CC4)cc(Cl)cc21` (centres unmarked) [azasetron HCl, N-(1-azabicyclo[2.2.2]octan-8-yl)-6-chloro-4-methyl-3-oxo-1,4-benzoxazine-8-carboxamide], the “mean loss of outer hair cells compared to placebo” value in assay [1] (cochleae fixed after audiometry on day 14) was “significantly lower mean loss”. Moreover, the “reduction of mean outer hair cell loss compared to placebo treatment” value in assay [1] (cochleae fixed at day 14) is reported as 50-75%. For the same compound, the “effect on calcineurin phosphatase activity” value in assay [2] (CGNs in K25 medium, 10, 100 or 1000 nM for 4 DIV, relative to K25 control (100%)) was “significantly inhibited”. Besides, the “change of calcineurin inhibition with increasing concentration” value in assay [2] (CGNs, 4 DIV, 10-1000 nM) is on record as “increased to different degree with increasing concentrations”. In addition, the “concentrations at which calcineurin inhibition was significant” value in assay [2] (CGNs, 4 DIV, tested at 10, 100, 1000 nM, p<=0.05 vs K25 control) came to 1000 nM.
